Source: article PMC5407626 (PLoS ONE, 2017)
Values joined by “and” are separate entries in the source; they are usually repeats but may differ in a detail not shown here. Equal entries are not always repeated. Where two headings read alike, the source gives them in different places.

Columns and labels:
SCD1 [1] = biological target: T1, SCD1 (Homo sapiens, UniProt O00767); test: SCD1 activity in ARPE-19 cells (conversion of methyl-D3 palmitic acid to methyl-D3 palmitoleic acid, LC/MS); type: cell-based; settings: for Palmitate (AUC) / Palmitoleic Acid (AUC) / Ratio (16:0 / 16:1): 10 μM 16 h, then 50 μM D3-palmitic acid 5 h, single samples; for effect on SCD1 activity: ARPE-19 cells; for effect on SCD1 activity / Mean Ratio (16:0 / 16:1): 10 μM; for Mean Ratio (16:0 / 16:1): mean of 3 samples, DMSO 8.884
T1 construct: endogenous in cells; host or cells: ARPE-19
T1 sequence (O00767 1-359): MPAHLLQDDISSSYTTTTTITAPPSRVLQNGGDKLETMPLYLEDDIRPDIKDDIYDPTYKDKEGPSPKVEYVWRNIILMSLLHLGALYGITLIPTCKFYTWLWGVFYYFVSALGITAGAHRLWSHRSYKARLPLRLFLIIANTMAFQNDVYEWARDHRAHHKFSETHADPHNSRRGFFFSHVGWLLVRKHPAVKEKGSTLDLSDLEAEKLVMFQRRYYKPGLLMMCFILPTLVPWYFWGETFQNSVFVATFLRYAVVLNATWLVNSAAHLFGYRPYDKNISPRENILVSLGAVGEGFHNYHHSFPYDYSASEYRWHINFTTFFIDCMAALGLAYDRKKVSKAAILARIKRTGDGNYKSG
Description: (§1) Compounds were dissolved in dimethyl sulfoxide (DMSO) and then added to the cell culture medium. Cells designated as control received an equal amount of dimethyl sulfoxide. After 16 h, cells were incubated with 50 μM palmitic acid triply deuterated (D3) on the methyl group (Cambridge Isotope Laboratories, Tewksbury, MA) for an additional 5 h before harvesting.
Cells were detached from culture plates using 0.05% Trypsin-EDTA, washed with PBS, and pelleted. Cell pellets were resuspended in 450 μl Cell Lysis Buffer (Cell Signaling Technology, Danvers, MA) then sonicated on ice until uniformly dispersed. An aliquot (50 μl) of the dispersed cell suspension was used for protein quantitation, and the remaining 400 μl was used for lipid extraction as follows. Samples were spiked with a small volume of pentadecanoic acid (in CHCl3) as internal standard, and were then subjected to saponification (by addition of an equal volume of 0.6 M methanolic KOH and incubating at 72°C for 15 minutes). Following saponification, samples were acidified by addition of 100 μl formic acid. The acidified mixture was extracted twice with 1 ml chloroform to recover free fatty acids. The chloroform extracts were pooled, solvent was evaporated under argon at 37°C, and the residue was resolubilized in 100 μl chloroform/methanol (1:4) for analysis by liquid chromatography mass spectrometry (LC/MS) using a modification of the procedures of Dillon et al.. The LC-MS system consisted of a 1200 Series Capillary LC (Agilent, Santa Clara, CA) coupled to a Micromass Q-Tof micro mass spectrometer (Waters Corp., Milford, MA) equipped with an electrospray ionization source. Separation of fatty acids was achieved by isocratic elution on a PLRP-S polymeric reversed-phase column (100 Å, 3 μm, 2.1 x 150 mm; Agilent) heated to 65°C. A mobile phase consisting of 25% acetonitrile:chloroform (1:1), 40% methanol, 25% water, 10% 10 mM ammonium acetate was run at a flow rate of 0.1 ml/min. The mass spectral analysis of the fatty acids was performed in the negative ion mode using the following instrument settings: capillary voltage, 1600; sample cone voltage, 40; cone gas flow, 40 L/hr; desolvation gas flow, 400 L/hr; source temperature, 80°C; desolvation temperature, 100°C. Data was then analyzed using MassLynx software v 4.1 (Waters) by extracting the ion chromatograms of the labeled palmitic and palmitoleic acid peaks and measuring peak area.
(§2) Cell lysates were analyzed by Western blotting using mouse monoclonal antibody against SCD1 (upper panel) in comparison with immunoreactivity to α-tubulin which was employed as a loading control (lower panel) and densitometry for each lane was performed and analyzed by ImageJ to provide the SCD1/α-tubulin ratio for each lane. […] Free fatty acids present in lipid extracts were analyzed by LC/MS and SCD1 activity, measured by the conversion of methyl-D3 palmitic acid to methyl-D3 palmitoleic acid, was determined. […] Lipids were extracted from two 100 mm Petri dishes and combined for mass spectrometry analysis. Data plotted as means ± standard deviation; n = 3. […] They are given here as printed results in cells, but it is uncertain whether they fall under the exclusion for gels and blots. / Panel A: the Control lane (1.00) is left out because it is not a substance.

SCD1 [2] = test: SCD1 protein expression in ARPE-19 cells (Western blot densitometry); type: cell-based, human; settings: 10 μM
Description: as §1
Samples were resuspended in 20 μl 4X reducing NuPAGE LDS sample buffer (Invitrogen). For western blot analysis, equal amounts of total protein (50 μg) from cell extracts were subjected to SDS-polyacrylamide gel electrophoresis using 4–12% NUPAGE Bis-Tris gels and then transferred to a nitrocellulose membrane using iBlot® Dry Blotting System (Invitrogen, Carlsbad, CA). After blocking in 5% non-fat milk in Tris-buffered saline (TBS) containing 0.01% Tween 20 for 1 h, the membranes were incubated overnight at 4°C with mouse monoclonal anti-SCD1 antibody (1:200; Kamiya Biomedical Company). Peroxidase-conjugated goat anti-mouse IgG antibody was used as secondary antibody. Immunocomplexes were visualized by a chemiluminescence method using the ECL Prime western blotting Detection Kit (GE Healthcare Life Sciences). The blots were then stripped and reprobed with mouse monoclonal anti-α-tubulin antibody.
as §2

recombinant mouse BCO1 = biological target: T2, recombinant mouse BCO1 (Mus musculus, UniProt Q9JJS6); test: In vitro inhibition of recombinant mouse BCO1 activity; type: biochemical
T2 construct: His-tag; made in house; host or cells: E. coli
T2 sequence (Q9JJS6 1-566): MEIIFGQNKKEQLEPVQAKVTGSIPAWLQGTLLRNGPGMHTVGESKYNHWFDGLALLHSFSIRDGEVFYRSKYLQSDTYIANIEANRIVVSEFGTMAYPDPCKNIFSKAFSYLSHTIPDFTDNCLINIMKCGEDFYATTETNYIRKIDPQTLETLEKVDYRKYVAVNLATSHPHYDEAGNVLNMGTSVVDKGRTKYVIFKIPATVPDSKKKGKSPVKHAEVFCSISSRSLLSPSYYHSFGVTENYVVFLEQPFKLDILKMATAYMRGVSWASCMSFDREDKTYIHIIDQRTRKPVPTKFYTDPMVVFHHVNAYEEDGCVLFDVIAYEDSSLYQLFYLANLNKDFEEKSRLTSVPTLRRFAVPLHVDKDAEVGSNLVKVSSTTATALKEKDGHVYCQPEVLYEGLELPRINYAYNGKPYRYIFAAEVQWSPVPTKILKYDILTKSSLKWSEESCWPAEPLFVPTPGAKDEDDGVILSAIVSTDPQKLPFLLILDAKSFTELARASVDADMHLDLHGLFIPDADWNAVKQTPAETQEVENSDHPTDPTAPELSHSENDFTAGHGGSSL
Excerpt: Recombinant His-tag mouse BCO1 was produced in E.coli and purified using Talon CellThru (Clontech Labs, Inc., Mountain View, CA) resin as described previously. β-carotene was delivered in 1% octylthioglucoside. […] All other inhibitors were delivered in ethanol. […] The final concentration of ethanol in all samples was 1%. […] Data plotted as means±standard deviation; n = 3; […] Analysis was done in C57BL/6 wt (3 animals) and Bco1^-/- mice (13 animals).

SMILES | Palmitate (AUC) (SCD1 [1]; listed as 4HPR) | Palmitoleic Acid (AUC) (SCD1 [1]; listed as 4HPR) | effect on SCD1 activity (SCD1 [1]) | effect on SCD1 expression (SCD1 [2]) | Palmitate (AUC) (SCD1 [1]) | Palmitoleic Acid (AUC) (SCD1 [1]) | Ratio (16:0 / 16:1) (SCD1 [1]) | Mean Ratio (16:0 / 16:1) (SCD1 [1]) | effect on BCO1 activity (recombinant mouse BCO1; inhibitor 0–200 μM) | IC50 (recombinant mouse BCO1) | IC50 (recombinant mouse BCO1; 20 μM β-carotene, enzyme preincubated with inhibitor 10 min at 4°C, read-out: IC50 BCO1)
CC1=C(/C=C/C(C)=C/C=C/C(C)=C/C(=O)Nc2ccc(O)cc2)C(C)(C)CCC1 [fenretinide, N-[4-hydroxyphenyl]retinamide] | 1258.94 and 1398.36 and 1783.91 | 12.20 and 15.08 and 14.79 | effective inhibitors of SCD1 activity | inhibitory effect on SCD1 expression | – | – | – | – | – | – | –
O=C(O)c1ccccc1NC(=O)N1CCC(c2ccccc2C(F)(F)F)CC1 [A1120] | – | – | no inhibitory effect on SCD1 activity at all | do not affect | 625.27 and 963.80 and 854.94 | 74.04 and 107.80 and 111.92 | 8.445 and 8.941 and 7.639 | 8.342 | does not affect BCO1 activity | – | –
CC1=C(/C=C/C(C)=C/C=C/C(C)=C/C(=O)Nc2ccc(O)cc2)C(C)(C)CCC1=O [3-keto-HPR, 4-oxo-N-(4-hydroxyphenyl)retinamide] | – | – | effective inhibitors of SCD1 activity | more efficiently inhibits SCD1 expression | 1476.16 and 1271.38 and 1913.30 | 17.56 and 10.07 and 19.08 | 84.064 and 126.254 and 100.278 | 103.532 | – | 4 µM | –
COc1ccc(NC(=O)/C=C(C)/C=C/C=C(C)/C=C/C2=C(C)CCCC2(C)C)cc1 [MPR, N-[4-methoxyphenyl]retinamide] | – | – | no inhibitory effect on SCD1 activity at all | do not affect | 2368.01 and 2526.72 and 1327.38 | – | 8.882 and 7.657 and 8.556 | 8.365 | – | – | 5 µM
